Measurements taken from patent US7786141B2 (Vertex Pharmaceuticals Incorporated, priority 2004, dated 2010).
Read-outs that look alike come from different tables or passages of the source.

Experiments:
M1 muscarinic receptor = target: T1, M1 muscarinic receptor (Homo sapiens, UniProt P11229); assay: Functional mobilization of intracellular calcium (FLIPR) in M1-CHO cells; type: cell-based
T1 construct: expressed in transfected cells; host or cells: CHO (M1-CHO)
T1 sequence (P11229 1-460): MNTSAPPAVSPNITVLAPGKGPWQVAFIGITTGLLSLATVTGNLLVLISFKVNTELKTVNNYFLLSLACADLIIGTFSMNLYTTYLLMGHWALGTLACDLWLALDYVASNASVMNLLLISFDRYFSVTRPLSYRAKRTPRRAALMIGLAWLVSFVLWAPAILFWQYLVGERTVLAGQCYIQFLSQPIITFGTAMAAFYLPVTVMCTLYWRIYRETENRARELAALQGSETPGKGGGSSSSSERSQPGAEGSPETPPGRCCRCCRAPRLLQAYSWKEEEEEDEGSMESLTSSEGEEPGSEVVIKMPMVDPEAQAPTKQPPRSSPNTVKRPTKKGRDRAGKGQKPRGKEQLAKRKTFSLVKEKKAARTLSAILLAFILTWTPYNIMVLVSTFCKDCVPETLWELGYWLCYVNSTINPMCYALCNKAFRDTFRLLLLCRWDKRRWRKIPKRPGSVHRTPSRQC
Procedure, shortened: (§1)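 Intracellular calcium rise is measured by FLIPR fluorescence over 60 sec in CHO cells carrying human M1 or M4 receptors. Compounds are tested alone as agonists, or pre-incubated 15 min (or co-applied) ahead of carbachol at its EC80 to detect inhibition.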

M4 muscarinic receptor = target: T2, M4 muscarinic receptor (Homo sapiens, UniProt P08173); assay: Functional mobilization of intracellular calcium (FLIPR) in M4-CHO cells; type: cell-based
T2 construct: expressed in transfected cells; host or cells: CHO (M4-CHO)
T2 sequence (P08173 1-479): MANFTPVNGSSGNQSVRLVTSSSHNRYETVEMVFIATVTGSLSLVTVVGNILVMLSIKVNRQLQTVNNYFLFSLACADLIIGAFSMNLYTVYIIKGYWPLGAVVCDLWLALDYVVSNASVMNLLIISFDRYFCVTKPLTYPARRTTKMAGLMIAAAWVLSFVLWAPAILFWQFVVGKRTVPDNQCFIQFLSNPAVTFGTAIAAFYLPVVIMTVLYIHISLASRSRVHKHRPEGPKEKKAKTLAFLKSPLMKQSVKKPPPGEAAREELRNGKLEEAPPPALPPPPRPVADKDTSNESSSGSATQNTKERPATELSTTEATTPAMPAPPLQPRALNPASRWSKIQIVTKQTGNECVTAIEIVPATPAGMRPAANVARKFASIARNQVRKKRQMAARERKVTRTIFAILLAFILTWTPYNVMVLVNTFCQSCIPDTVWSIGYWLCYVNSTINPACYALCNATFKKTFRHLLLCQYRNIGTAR
Procedure, shortened: as §1

[1] = M1-CHO cells, calcium mobilization (FLIPR)
[2] = M4-CHO cells, calcium mobilization (FLIPR)
[3] = M1 receptor, calcium mobilization
[4] = M1 receptor, calcium mobilization, read-out: M1 Efficacy
[5] = M4 receptor, calcium mobilization
[6] = M4 receptor, calcium mobilization, read-out: M4 Efficacy
[7] = 100% efficacy is the maximum response obtained with the Carbachol control, Table 5
[8] = Table 4, 100% efficacy is the maximum response obtained with the Carbachol control
[9] = Table 4, M1 receptor, calcium mobilization (FLIPR)
[10] = Table 4, M4 receptor, calcium mobilization (FLIPR)
[11] = Table 4, modulating M1 receptor
[12] = Table 4, modulating M4 receptor

CCCOC(=O)N1C2CCC1CC(N1CCC3(CC1)CN(C(=O)OC)c1ccc(F)cc13)C2 (centres unmarked) [compound 386]
EC50 (M1 muscarinic receptor; [1]): 100 to 1000 nM
Emax (M1 muscarinic receptor; M1-CHO cells, calcium mobilization (FLIPR), read-out: M1 Efficacy): < 65%
EC50 (M4 muscarinic receptor; [2]): 100 to 1000 nM
Emax (M4 muscarinic receptor; M4-CHO cells, calcium mobilization (FLIPR), read-out: M4 Efficacy): < 65%

CCOC(=O)N1C2CCC1CC(N1CCC3(CC1)CN(C(=O)C1CCC1)c1ccc(F)cc13)C2 (centres unmarked) [compound 179]
M1 Activity (M1 muscarinic receptor; [3]): xx (activity was measured to be between 0.1 μM and 1.0 μM)
Emax (M1 muscarinic receptor; [4]): > 85%
M4 Activity (M4 muscarinic receptor; [5]): x (activity was measured to be greater than 1.0 μM)
Emax (M4 muscarinic receptor; [6]): 65 to 85%

CN(C)C(=O)N1CC2(CCN(C3CCN(c4ccccn4)CC3)CC2)c2cc(F)ccc21 [compound 1039]
Emax (M1 muscarinic receptor; [7]): 25 to 100%
EC50 (M1 muscarinic receptor; CHO cells expressing M1, calcium mobilization, Table 5): 2000 to 10000 nM
Emax (M4 muscarinic receptor; [7]): 25 to 100%
EC50 (M4 muscarinic receptor; CHO cells expressing M4, calcium mobilization, Table 5): < 2000 nM

CC(=O)NC1CC2(CCN(CC3CC4C=CC3C4)CC2)c2ccc(C)cc21 (centres unmarked) [compound 985]
Emax (M1 muscarinic receptor; [8]): 25 to 100%
M1 Activity (M1 muscarinic receptor; [9]): x (activity was measured to be greater than 5.0 μM)
Emax (M4 muscarinic receptor; [8]): 25 to 100%
M4 Activity (M4 muscarinic receptor; [10]): xx (activity was measured to be between 2.0 μM and 5.0 μM)

CCOC(=O)N1CC[C@@H](CN2CCC3(CC2)CN(C(C)=O)c2ccccc23)C1 [compound 843]
Emax (M1 muscarinic receptor; [8]): 25 to 100%
M1 Activity (M1 muscarinic receptor; [9]): xxx (activity was measured to be less than 2.0 μM)
Emax (M4 muscarinic receptor; [8]): 25 to 100%
M4 Activity (M4 muscarinic receptor; [10]): xxx (activity was measured to be less than 2.0 μM)

CCCOC(=O)N1C2CCC1CC(N1CCC3(CC1)CN(C(C)=O)c1ccccc13)C2 (centres unmarked) [compound 507]
Emax (M1 muscarinic receptor; [8]): 25 to 100%
M1 Activity (M1 muscarinic receptor; [11]): xxx (activity was measured to be less than 2.0 μM)
Emax (M4 muscarinic receptor; [8]): 25 to 100%
M4 Activity (M4 muscarinic receptor; [12]): xxx (activity was measured to be less than 2.0 μM)

CC(=O)N[C@H]1CC2(CCN(C3CCC(c4ccccc4)CC3)CC2)c2ccccc21 (some centres unmarked) [compound 273]
M1 Activity (M1 muscarinic receptor; [3]): xxx (activity was measured to be less than 0.1 μM)
Emax (M1 muscarinic receptor; [4]): > 85%
M4 Activity (M4 muscarinic receptor; [5]): xx (activity was measured to be between 0.1 μM and 1.0 μM)
Emax (M4 muscarinic receptor; [6]): > 85%

CCOC(=O)N1CCC(N2CCC3(CC2)CN(C(=O)[C@H](O)CC)c2ccc(F)cc23)CC1 [compound 730]
Emax (M1 muscarinic receptor; [8]): 25 to 100%
M1 Activity (M1 muscarinic receptor; [11]): xxx (activity was measured to be less than 2.0 μM)
Emax (M4 muscarinic receptor; [8]): 25 to 100%
M4 Activity (M4 muscarinic receptor; [12]): xxx (activity was measured to be less than 2.0 μM)

CCOC(=O)N1CCC(N2CCC3(CC2)CN(C2CCC4(CC2)OCCO4)c2ccc(F)cc23)CC1 [compound 689]
Emax (M1 muscarinic receptor; [8]): > 100%
M1 Activity (M1 muscarinic receptor; [11]): xxx (activity was measured to be less than 2.0 μM)
Emax (M4 muscarinic receptor; [8]): 25 to 100%
M4 Activity (M4 muscarinic receptor; [12]): xxx (activity was measured to be less than 2.0 μM)

CC(=O)NC1CC2(CCN(C3CCCCCC3)CC2)c2ccccc21 (centres unmarked) [compound 159]
M1 Activity (M1 muscarinic receptor; [3]): xx (activity was measured to be between 0.1 μM and 1.0 μM)
Emax (M1 muscarinic receptor; [4]): > 85%
M4 Activity (M4 muscarinic receptor; [5]): x (activity was measured to be greater than 1.0 μM)
Emax (M4 muscarinic receptor; [6]): > 85%

CC(=O)NC1CC2(CCN(C[C@@H]3C[C@H]4C=C[C@H]3C4)CC2)c2ccccc21 (some centres unmarked) [compound 421]
EC50 (M1 muscarinic receptor; [1]): > 1000 nM
M1 Efficacy (M1 muscarinic receptor; [1]): x (efficacy was calculated to be less than 65%)
EC50 (M4 muscarinic receptor; [2]): > 1000 nM
M4 Efficacy (M4 muscarinic receptor; [2]): x (efficacy was calculated to be less than 65%)

CCCOC(=O)N1CCC(N2CCC3(CC2)CN(C(=O)N(C)C)c2ccc(F)cc23)CC1 [compound 91]
M1 Activity (M1 muscarinic receptor; [3]): xxx (activity was measured to be less than 0.1 μM)
Emax (M1 muscarinic receptor; [4]): 65 to 85%
M4 Activity (M4 muscarinic receptor; [5]): xx (activity was measured to be between 0.1 μM and 1.0 μM)
Emax (M4 muscarinic receptor; [6]): < 65%

CCCOC(=O)N1CC2(CCN(C3CCN(C(=O)OCC)CC3)CC2)c2cc(F)ccc21 [compound 114]
M1 Activity (M1 muscarinic receptor; [3]): xx (activity was measured to be between 0.1 μM and 1.0 μM)
Emax (M1 muscarinic receptor; [4]): 65 to 85%
M4 Activity (M4 muscarinic receptor; [5]): x (activity was measured to be greater than 1.0 μM)
Emax (M4 muscarinic receptor; [6]): < 65%

C#CCCOC(=O)N1C2CCC1CC(N1CCC3(CC1)CN(C(C)=O)c1ccccc13)C2 (centres unmarked) [compound 747]
Emax (M1 muscarinic receptor; [8]): 25 to 100%
M1 Activity (M1 muscarinic receptor; [11]): xxx (activity was measured to be less than 2.0 μM)
Emax (M4 muscarinic receptor; [8]): 25 to 100%
M4 Activity (M4 muscarinic receptor; [12]): xxx (activity was measured to be less than 2.0 μM)
